PubChem BioAssay (NCI)
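Results reflect a 48-hour exposure of cells in 96-well plates to compound at five concentrations. The concentration for full growth arrest is given as TGI.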

Tests used:
Assay in all cases: inhibition of tumour cell growth, NCI panel, 48 h
[1] = system: 786-0 renal
[2] = system: A498 renal
[3] = system: A549 NSCLC
[4] = system: ACHN renal
[5] = system: BT-549 breast
[6] = system: CAKI-1 renal
[7] = system: CCRF-CEM leukemia
[8] = system: COLO 205 colon
[9] = system: DU-145 prostate
[10] = system: EKVX NSCLC
[11] = system: HCC-2998 colon
[12] = system: HCT-116 colon
[13] = system: HCT-15 colon
[14] = system: HOP-62 NSCLC
[15] = system: HOP-92 NSCLC
[16] = system: K-562 leukemia
[17] = system: KM12 colon
[18] = system: LOX IMVI melanoma
[19] = system: M14 melanoma
[20] = system: MCF7 breast
[21] = system: MDA-MB-231 breast
[22] = system: MDA-MB-435
[23] = system: MOLT-4 leukemia
[24] = system: NCI-H226 lung
[25] = system: NCI-H23 lung
[26] = system: NCI-H460 lung
[27] = system: NCI/ADR-RES ovarian
[28] = system: OVCAR-3 ovarian
[29] = system: OVCAR-4 ovarian
[30] = system: OVCAR-5 ovarian
[31] = system: PC-3 prostate
[32] = system: RPMI-8226 leukemia
[33] = system: RXF 393 renal
[34] = system: SF-268 CNS
[35] = system: SF-295 CNS
[36] = system: SF-539 CNS
[37] = system: SK-MEL-2 melanoma
[38] = system: SK-MEL-28 melanoma
[39] = system: SK-MEL-5 melanoma
[40] = system: SK-OV-3 ovarian
[41] = system: SNB-19 CNS
[42] = system: SNB-75 CNS
[43] = system: SW-620 colon
[44] = system: T-47D breast
[45] = system: TK-10 renal
[46] = system: U251 CNS
[47] = system: UACC-257 melanoma
[48] = system: UACC-62 melanoma
[49] = system: UO-31 renal

Measured: TGI

COc1ccc(C2c3c(n(C)c(=O)n(C)c3=O)OC(N(C)C)(N(C)C)C2(F)F)cc1 (centres undefined)
> 100 µM: [1] | [2] | [3] | [4] | [5] | [6] | [7] | [8] | [9] | [10] | [11] | [12] | [13] | [14] | [15] | [16] | [17] | [18] | [19] | [20] | [21] | [22] | [23] | [24] | [25] | [26] | [27] | [28] | [29] | [30] | [31] | [32] | [33] | [34] | [35] | [36] | [37] | [38] | [39] | [40] | [41] | [42] | [43] | [44] | [45] | [46] | [47] | [48] | [49]
